Data taken from patent publication US10793528B2 (priority 2016, dated 2020).

What was measured:
[1] = biological target: human mu-opioid receptor (hMOP) (Homo sapiens (Human), UniProt P35372); type: binding
[2] = biological target: human delta-opioid receptor (hDOP) (Homo sapiens (Human), UniProt P41143); experiment: hDOP receptor binding assay (SPA, [3H]2-D-Ala-deltorphin II); conditions: concentration not given; neighbouring values @1μM
[3] = biological target: human nociceptin/orphanin FQ peptide receptor (hNOP) (Homo sapiens (Human), UniProt P41146); type: binding

Row | Structure (SMILES) | hMOP % @1μM (given instead of Ki) [1] [% @1μM] | DOP % [2] | hNOP % @1μM (given instead of Ki) [3] [% @1μM]
1 | CCN(C)[C@]1(c2ccccc2)CC[C@]2(CC1)CN(CC(C)(C)C(N)=O)C(=O)N2 [SC_5064, CIS-3-[8-(Ethyl-methyl-amino)-2-oxo-8-phenyl-1,3-diazaspiro[4.5]decan-3-yl]-2,2-dimethyl-propionamide] | 3 | (DOP 20%) | 3
2 | CCN(C)C1(c2ccccc2)CCC2(CC1)CN(CC(C)(C)C(N)=O)C(=O)N2C (stereo not drawn) [SC_5066, CIS-3-[8-(Ethyl-methyl-amino)-1-methyl-2-oxo-8-phenyl-1,3-diazaspiro[4.5]decan-3-yl]-2,2-dimethyl-propionamide] | 7 | (DOP 22%) | 0
